The values that follow come from US7772245B2, “Inhibitors of histone deacetylase” (Miikana Therapeutics, Inc., priority 2005, dated 2010).

In one assay the test system is HDAC. Briefly: In vitro fluorescent histone deacetylase assay (Biomol HDAC fluorescent activity kit, HeLa cell nuclear extract). Type of assay: biochemical. Particulars: 100 μM compound; HeLa cell nuclear extract as source of HDAC activity; 50 μM substrate, 10 min at room temperature. As for the experimental part: Histone deacetylase (HDAC) activity assays were performed using the HDAC fluorescent activity assay/drug discovery kit (Biomol Research Laboratories, Plymouth Meeting, Pa.) essentially according to the manufacturer's instructions. The included HeLa cell nuclear extract, which contains a mosaic of HDAC enzymes and other nuclear factors, was used as the source of HDAC activity. The final substrate concentration in the assay mixture was 50 μM. The reaction was allowed to proceed for 10 min at room temperature before stopping the reaction. Test compounds were prepared as 20 mM stock solutions in DMSO (Molecular Biology grade, Sigma-Aldrich Co., St. Louis, Mo.) and stored at −70° C. Serial dilutions of test compounds were prepared in assay buffer immediately prior to testing. DMSO was determined in a separate trial to have no significant effect on the activity of this assay at concentrations up to 5%; the final DMSO concentration in the wells was no more than 2% and therefore DMSO effects were safely neglected. Assays were performed in white polystyrene 96-well half-area assay plates (Corning, Corning, N.Y.) and measured on a Wallace 1420 fluorescent plate reader (Wallac Oy, Turku, Finland) with an excitation wavelength of 355 nm, an emission wavelength of 460 nm, and a 1 sec signal averaging time.

Another assay concerns HCT116 cells. The assay can be described thus: Whole cell cytotoxicity assay: Sulforhodamine B. Type of assay: cell-based. To be noted: Homo sapiens, HCT-116; 100 μM compound; 48 hours incubation with drug; Sulforhodamine B staining; read-out: % Inhibition of HCT116 cell growth @ 100 μM. In general terms: In SRB staining, fixed cells bind dye roughly in proportion to their protein.

As for `O=C(NO)c1cnc(N2CCc3c([nH]c4ccccc34)C2)s1` [Example 19, N-hydroxy-2-(1,3,4,9-tetrahydro-2H-b-carbolin-2-yl)-1,3-thiazole-5-carboxamide], in the assay on HDAC, the “% Inhibition of HDAC @ 100 μM” value is on record as 97.6%. Moreover, the inhibition at 100 µM in the assay on HCT116 cells was 97.2%.

Take `COc1ccc2[nH]c3c(c2c1)CN(c1ncc(C(=O)NO)cn1)CC3` [Example 57, N-hydroxy-2-(8-methoxy-1,3,4,5-tetrahydro-2H-pyrido[4,3-b]indol-2-yl)pyrimidine-5-carboxamide]: in the assay on HDAC, the “% Inhibition of HDAC @ 100 μM” value is on record as 99.9%. The inhibition at 100 µM in the assay on HCT116 cells came out at 98.2%.

Turning to `O=C(/C=C/c1ccc(CN2CCc3c([nH]c4ccccc34)C2)s1)NO` [Example 3, (2E)-N-hydroxy-3-[5-(1,3,4,9-tetrahydro-2H-b-carbolin-2-ylmethyl)thien-2-yl]acrylamide], the “% Inhibition of HDAC @ 100 μM” value in the assay on HDAC worked out at 97.9%. Further, the inhibition at 100 µM in the assay with HCT116 cells is 98.3%.

Regarding `O=C(NO)c1cnc(N2CCc3c(n(CCN4CCCCC4)c4ccccc34)C2)nc1` [Example 24, N-hydroxy-2-[9-(2-piperidin-1-ylethyl)-1,3,4,9-tetrahydro-2H-b-carbolin-2-yl]pyrimidine-5-carboxamide], the “% Inhibition of HDAC @ 100 μM” value with HDAC amounted to 99%. The inhibition at 100 µM in the assay on HCT116 cells came to 98.9%.

In the case of `CS(=O)(=O)Nc1ccc2[nH]c3c(c2c1)CN(c1ncc(C(=O)NO)cn1)CC3` [Example 78, N-hydroxy-2-(8-(N-methylsulfonamido)-1,3,4,5-tetrahydro-2H-pyrido[4,3-b]indol-2-yl)pyrimidine-5-carboxamide], the “% Inhibition of HDAC @ 100 μM” value in the assay with HDAC amounted to 99.9%. Moreover, the inhibition at 100 µM in the assay with HCT116 cells is 85.1%.

As for `CC(=O)NCc1cccc(-c2ccc3[nH]c4c(c3c2)CN(c2ncc(C(=O)NO)cn2)CC4)c1` [Example 82, N-hydroxy-2-{8-[3-(N-acetamidomethyl)phenyl]-1,3,4,5-tetrahydro-2H-pyrido[4,3-b]indol-2-yl}pyrimidine-5-carboxamide], the “% Inhibition of HDAC @ 100 μM” value with HDAC amounted to 99.9%. For the same compound, the inhibition at 100 µM in the assay on HCT116 cells came out at 97%.

Regarding `O=C(NO)c1cnc(N2CCc3[nH]c4ccc([N+](=O)[O-])cc4c3C2)nc1` [Example 37, N-hydroxy-2-(8-nitro-1,3,4,5-tetrahydro-2H-pyrido[4,3-b]indol-2-yl)pyrimidine-5-carboxamide], the “% Inhibition of HDAC @ 100 μM” value in the assay on HDAC is 99.9%. Further, the inhibition at 100 µM in the assay on HCT116 cells is 97.1%.

Consider `O=C(NO)c1cnc(N2CCc3[nH]c4ccc(-c5cccc(CN6CCOCC6)c5)cc4c3CC2)nc1` [Example 116, N-hydroxy-2-(9-[3-(morpholin-4-ylmethy)phenyl]-1,4,5,6-tetrahydroazepino[4,5-b]indol-3(2H)-1-yl)pyrimidine-5-carboxamide], for which the “% Inhibition of HDAC @ 100 μM” value in the assay with HDAC was determined as 100%. Moreover, the inhibition at 100 µM with HCT116 cells stood at 98.6%.

As to `Cn1c2c(c3ccccc31)CCN(c1ncc(C(=O)NO)cn1)C2` [Example 27, N-hydroxy-2-(9-methyl-1,3,4,9-tetrahydro-2H-b-carbolin-2-yl)pyrimidine-5-carboxamide], the “% Inhibition of HDAC @ 100 μM” value in the assay with HDAC came out at 98.3%. The inhibition at 100 µM in the assay on HCT116 cells came out at 98.9%.

Regarding `Nc1ccc2[nH]c3c(c2c1)CN(c1ncc(C(=O)NO)cn1)CC3` [Example 76, N-hydroxy-2-(8-amino-1,3,4,5-tetrahydro-2H-pyrido[4,3-b]indol-2-yl)pyrimidine-5-carboxamide], in the assay with HDAC, the “% Inhibition of HDAC @ 100 μM” value was found to be 100%. Also, the inhibition at 100 µM in the assay with HCT116 cells was 98.9%.

`Cc1ccc2c3c([nH]c2c1)CN(c1ncc(C(=O)NO)cn1)CC3` [Example 65, N-hydroxy-2-(7-methyl-1,3,4,9-tetrahydro-2H-b-carbolin-2-yl)pyrimidine-5-carboxamide]: the “% Inhibition of HDAC @ 100 μM” value in the assay with HDAC is on record as 99.8%. Further, the inhibition at 100 µM in the assay with HCT116 cells is 98.4%.

As to `O=C(NO)c1cnc(N2CCc3[nH]c4ccc(-c5cccc(CO)c5)cc4c3C2)nc1` [Example 43, N-hydroxy-2-{8-[3-(hydroxymethyl)phenyl]-1,3,4,5-tetrahydro-2H-pyrido[4,3-b]indol-2-yl}pyrimidine-5-carboxamide], the “% Inhibition of HDAC @ 100 μM” value with HDAC was found to be 100%. Besides, the inhibition at 100 µM with HCT116 cells came out at 98.7%.

`O=C(NO)c1cnc(N2CCc3[nH]c4ccc(-c5cccc(CN6CCSCC6)c5)cc4c3C2)nc1` [Example 94, N-hydroxy-2-{8-[3-(thiomorpholin-4-ylmethyl)phenyl]-1,3,4,5-tetrahydro-2H-pyrido[4,3-b]indol-2-yl}pyrimidine-5-carboxamide]: the “% Inhibition of HDAC @ 100 μM” value in the assay on HDAC is reported as 99.7%. Also, in the assay with HCT116 cells, the inhibition at 100 µM was found to be 98.5%.

As to `CS(=O)(=O)N1CCN(Cc2cccc(-c3ccc4[nH]c5c(c4c3)CN(c3ncc(C(=O)NO)cn3)CC5)c2)CC1` [Example 100, N-hydroxy-2-{8-[3-((4-(methylsulfonyl)piperazin-1-yl)methyl)phenyl]-1,3,4,5-tetrahydro-2H-pyrido[4,3-b]indol-2-yl}pyrimidine-5-carboxamide], the “% Inhibition of HDAC @ 100 μM” value with HDAC stood at 100%. In addition, the inhibition at 100 µM in the assay with HCT116 cells was 96.6%.

As to `CN1CCN(Cc2cccc(-c3ccc4[nH]c5c(c4c3)CCN(c3ncc(C(=O)NO)cn3)C5)c2)CC1` [Example 71, N-hydroxy-2-{6-[3-((4-methylpiperazin-1-yl)methyl)phenyl]-1,3,4,9-tetrahydro-2H-b-carbolin-2-yl}pyrimidine-5-carboxamide], in the assay with HDAC, the “% Inhibition of HDAC @ 100 μM” value is 99.9%. In addition, the inhibition at 100 µM in the assay on HCT116 cells came to 98.6%.

For `CC(=O)Nc1ccc(-c2ccc3[nH]c4c(c3c2)CN(c2ncc(C(=O)NO)cn2)CC4)cc1` [Example 50, N-hydroxy-2-{8-[4-(N-acetamido)phenyl]-1,3,4,5-tetrahydro-2H-pyrido[4,3-b]indol-2-yl}pyrimidine-5-carboxamide], in the assay with HDAC, the “% Inhibition of HDAC @ 100 μM” value is recorded as 99.7%. Also, the inhibition at 100 µM in the assay on HCT116 cells stood at 89.1%.

In the case of `COc1ccc(-c2ccc3[nH]c4c(c3c2)CN(c2ncc(C(=O)NO)cn2)CC4)cc1` [Example 40, N-hydroxy-2-{8-[4-methoxyphenyl]-1,3,4,5-tetrahydro-2H-pyrido[4,3-b]indol-2-yl}pyrimidine-5-carboxamide], the “% Inhibition of HDAC @ 100 μM” value in the assay on HDAC was found to be 99.8%. In addition, the inhibition at 100 µM with HCT116 cells is 98.3%.

For `O=C(NO)c1cnc(N2CCc3[nH]c4ccc(-c5cccc(CN6CCOCC6)c5)cc4c3C2)nc1` [Example 90, N-hydroxy-2-{8-[3-(morpholin-4-ylmethyl)phenyl]-1,3,4,5-tetrahydro-2H-pyrido[4,3-b]indol-2-yl}pyrimidine-5-carboxamide], the “% Inhibition of HDAC @ 100 μM” value in the assay on HDAC is 99.8%. For the same compound, the inhibition at 100 µM in the assay with HCT116 cells was 93.1%.

Consider `O=C(NO)c1cnc(N2CCc3[nH]c4ccc(-c5ccc(CN6CCOCC6)cc5)cc4c3C2)nc1` [Example 104, N-hydroxy-2-{8-[4-(morpholin-4-ylmethyl)phenyl]-1,3,4,5-tetrahydro-2H-pyrido[4,3-b]indol-2-yl}pyrimidine-5-carboxamide], for which the “% Inhibition of HDAC @ 100 μM” value in the assay with HDAC came to 100%. In the assay with HCT116 cells, the inhibition at 100 µM turned out to be 92%.

In the case of `O=C(NO)c1cnc(N2CCc3[nH]c4ccc(-c5cccc(CN6CCC(CO)CC6)c5)cc4c3C2)nc1` [Example 93, N-hydroxy-2-{8-[3-((4-hydroxymethylpiperidin-1-yl)methyl)phenyl]-1,3,4,5-tetrahydro-2H-pyrido[4,3-b]indol-2-yl}pyrimidine-5-carboxamide], in the assay with HDAC, the “% Inhibition of HDAC @ 100 μM” value turned out to be 100%. Further, the inhibition at 100 µM in the assay with HCT116 cells turned out to be 98%.

For `CC(=O)n1c2c(c3ccccc31)CCN(c1ncc(C(=O)NO)cn1)C2` [Example 29, 2-(9-acetyl-1,3,4,9-tetrahydro-2H-b-carbolin-2-yl)-N-hydroxypyrimidine-5-carboxamide], the “% Inhibition of HDAC @ 100 μM” value in the assay on HDAC is 99.8%. Also, the inhibition at 100 µM with HCT116 cells came to 98%.

In the case of `Cc1ccc2[nH]c3c(c2c1)CN(c1ncc(C(=O)NO)cn1)CC3` [Example 13, N-hydroxy-2-(8-methyl-1,3,4,5-tetrahydro-2H-pyrido[4,3-b]indol-2-yl)pyrimidine-5-carboxamide], the “% Inhibition of HDAC @ 100 μM” value in the assay with HDAC stood at 99.9%. For the same compound, the inhibition at 100 µM with HCT116 cells came out at 99.1%.

For `CN1CCN(Cc2ccc(-c3ccc4[nH]c5c(c4c3)CN(c3ncc(C(=O)NO)cn3)CC5)o2)CC1` [Example 108, N-hydroxy-2-{8-[5-((4-methylpiperazin-1-yl)methyl)-2-furyl]-1,3,4,5-tetrahydro-2H-pyrido[4,3-b]indol-2-yl}pyrimidine-5-carboxamide], the “% Inhibition of HDAC @ 100 μM” value with HDAC is listed as 100%. The inhibition at 100 µM in the assay with HCT116 cells worked out at 99.1%.

For `Nc1cccc(-c2ccc3[nH]c4c(c3c2)CN(c2ncc(C(=O)NO)cn2)CC4)c1` [Example 86, N-hydroxy-2-{8-[3-aminophenyl]-1,3,4,5-tetrahydro-2H-pyrido[4,3-b]indol-2-yl}pyrimidine-5-carboxamide], the “% Inhibition of HDAC @ 100 μM” value with HDAC is 100%. The inhibition at 100 µM in the assay on HCT116 cells was determined as 99.1%.

`CN1CCN(Cc2cccc(-c3ccc4[nH]c5c(c4c3)CCN(c3ncc(C(=O)NO)cn3)CC5)c2)CC1` [Example 117, N-hydroxy-2-(9-[3-((4-methylpiperazin-1-yl)methy)phenyl]-1,4,5,6-tetrahydroazepino[4,5-b]indol-3(2H)-1-yl)pyrimidine-5-carboxamide]: the “% Inhibition of HDAC @ 100 μM” value in the assay on HDAC turned out to be 99.8%. In the assay with HCT116 cells, the inhibition at 100 µM was 98.6%.

As usually defined, the inhibition is the drop in the measured response relative to a control, in per cent.
